Source: patent US12540131B2 (Merck Sharp & Dohme LLC, priority 2019, dated 2026)

Molecular target: GST tagged truncated human mutant G2019S LRRK2 (Homo sapiens (Human), UniProt Q5S007, G2019S)
Experiment: LRRK2 Km ATP LanthaScreen Assay
Assay type: biochemical
Conditions: G2019S LRRK2, 134 μM ATP (Km ATP), mean values
How it was run: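 Enzyme (GST-tagged, truncated) was preincubated with compound for 15 min at RT in 50 mM Tris pH 8.5, 10 mM MgCl2, 0.01% Brij-35, 1 mM EGTA, 2 mM DTT and 0.05 mM orthovanadate. Fluorescein-LRRKtide and 134 μM ATP (Km) were then added for 90 min. EDTA and Tb-anti-pERM antibody stopped the reaction; the TR-FRET 520/495 ratio gave 4-parameter IC50s, reported as mean pIC50.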

Chain of GST tagged truncated human mutant G2019S LRRK2 (Q5S007 970-2527 G2019S): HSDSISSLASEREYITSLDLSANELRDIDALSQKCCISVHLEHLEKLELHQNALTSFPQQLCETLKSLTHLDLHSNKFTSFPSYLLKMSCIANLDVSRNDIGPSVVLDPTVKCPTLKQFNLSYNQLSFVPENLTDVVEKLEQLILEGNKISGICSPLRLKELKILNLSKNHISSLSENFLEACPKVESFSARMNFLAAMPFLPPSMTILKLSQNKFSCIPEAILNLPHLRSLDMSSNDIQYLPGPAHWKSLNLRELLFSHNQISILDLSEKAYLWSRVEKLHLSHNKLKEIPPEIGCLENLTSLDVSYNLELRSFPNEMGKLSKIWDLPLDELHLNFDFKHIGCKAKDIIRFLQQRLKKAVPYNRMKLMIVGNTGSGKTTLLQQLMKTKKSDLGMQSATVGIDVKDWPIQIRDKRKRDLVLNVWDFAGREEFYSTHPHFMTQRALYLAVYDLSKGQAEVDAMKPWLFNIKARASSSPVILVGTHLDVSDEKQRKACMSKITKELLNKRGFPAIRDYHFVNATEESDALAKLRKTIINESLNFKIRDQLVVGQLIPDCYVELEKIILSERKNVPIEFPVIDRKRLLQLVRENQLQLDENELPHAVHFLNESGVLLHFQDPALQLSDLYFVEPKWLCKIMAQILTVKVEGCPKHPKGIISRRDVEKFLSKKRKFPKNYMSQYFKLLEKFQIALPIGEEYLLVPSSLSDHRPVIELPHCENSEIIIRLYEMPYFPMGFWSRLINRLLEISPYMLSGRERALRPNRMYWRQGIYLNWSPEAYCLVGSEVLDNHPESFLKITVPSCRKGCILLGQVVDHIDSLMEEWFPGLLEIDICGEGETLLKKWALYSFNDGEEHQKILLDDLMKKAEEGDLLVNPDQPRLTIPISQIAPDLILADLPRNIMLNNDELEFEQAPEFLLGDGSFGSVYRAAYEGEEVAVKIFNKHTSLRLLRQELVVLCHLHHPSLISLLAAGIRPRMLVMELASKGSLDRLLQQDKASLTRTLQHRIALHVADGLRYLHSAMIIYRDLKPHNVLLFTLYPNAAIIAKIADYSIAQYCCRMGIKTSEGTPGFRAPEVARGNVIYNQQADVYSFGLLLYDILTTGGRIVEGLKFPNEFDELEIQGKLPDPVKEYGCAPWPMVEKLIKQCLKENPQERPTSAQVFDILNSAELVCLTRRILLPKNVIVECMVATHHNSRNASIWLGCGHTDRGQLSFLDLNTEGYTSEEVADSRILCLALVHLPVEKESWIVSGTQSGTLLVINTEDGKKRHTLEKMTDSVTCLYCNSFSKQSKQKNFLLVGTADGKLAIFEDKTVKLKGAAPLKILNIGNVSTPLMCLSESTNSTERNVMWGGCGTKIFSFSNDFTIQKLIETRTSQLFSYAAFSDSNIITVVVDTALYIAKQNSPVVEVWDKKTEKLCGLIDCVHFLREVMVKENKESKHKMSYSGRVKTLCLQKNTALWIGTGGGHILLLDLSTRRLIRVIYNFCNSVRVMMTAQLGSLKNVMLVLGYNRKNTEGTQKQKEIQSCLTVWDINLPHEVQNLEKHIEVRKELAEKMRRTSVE

| Compound | LRRK2 pIC50 |
| --- | --- |
| O[C@H]1COC[C@H]1N1CC[C@@H](c2cc3nc(Nc4cnn(C56CC(C5)C6)c4)ncc3cc2Cl)[C@H](F)C1 (single isomer, unassigned) [Ex-4.154, (3S,4S)(3S,4S) or (3S,4S)(3R,4R) or (3R,4R)(3S,4S) or (3R,4R)(3R,4R) 4-[4-(2-{[1-(bicyclo[1.1.1]pentan-1-yl)-1H-pyrazol-4-yl]amino}-6-chloroquinazolin-7-yl)-3-fluoropiperidin-1-yl]oxolan-3-ol] | 9.06 |
| O[C@@H]1COC[C@@H]1N1CC[C@H](c2cc3nc(Nc4cnn(C56CC(C5)C6)c4)ncc3cc2Cl)[C@@H](F)C1 (single isomer, unassigned) [Ex-4.155, (3S,4S)(3S,4S) or (3S,4S)(3R,4R) or (3R,4R)(3S,4S) or (3R,4R)(3R,4R) 4-[4-(2-{[1-(bicyclo[1.1.1]pentan-1-yl)-1H-pyrazol-4-yl]amino}-6-chloroquinazolin-7-yl)-3-fluoropiperidin-1-yl]oxolan-3-ol] | >9.20 |
| O[C@H]1COC[C@H]1N1CC[C@H](c2cc3nc(Nc4cnn(C56CC(C5)C6)c4)ncc3cc2Cl)[C@@H](F)C1 (single isomer, unassigned) [Ex-4.156, (3S,4S)(3S,4S) or (3S,4S)(3R,4R) or (3R,4R)(3S,4S) or (3R,4R)(3R,4R) 4-[4-(2-{[1-(bicyclo[1.1.1]pentan-1-yl)-1H-pyrazol-4-yl]amino}-6-chloroquinazolin-7-yl)-3-fluoropiperidin-1-yl]oxolan-3-ol] | >9.20 |
| OC1CCCC1N1CC[C@@H](c2cc3nc(Nc4cnn(C5CC5)c4Cl)ncc3cc2Cl)[C@H](F)C1 (single isomer, unassigned) [Ex-4.157, (1S,2R)(3S,4S) or (1R,2S)(3S,4S) or (1R,2R)(3S,4S) or (1S,2S)(3S,4S) or (1S,2R)(3R,4R) or (1R,2S)(3R,4R) or (1R,2R)(3R,4R) or (1S,2S)(3R,4R) 2-(4-{6-chloro-2-[(5-chloro-1-cyclopropyl-1H-pyrazol-4-yl)amino]quinazolin-7-yl}-3-fluoropiperidin-1-yl)cyclopentan-1-ol] | 8.38 |
| OC1CCCC1N1CC[C@H](c2cc3nc(Nc4cnn(C5CC5)c4Cl)ncc3cc2Cl)[C@@H](F)C1 (single isomer, unassigned) [Ex-4.158, (1S,2R)(3S,4S) or (1R,2S)(3S,4S) or (1R,2R)(3S,4S) or (1S,2S)(3S,4S) or (1S,2R)(3R,4R) or (1R,2S)(3R,4R) or (1R,2R)(3R,4R) or (1S,2S)(3R,4R) 2-(4-{6-chloro-2-[(5-chloro-1-cyclopropyl-1H-pyrazol-4-yl)amino]quinazolin-7-yl}-3-fluoropiperidin-1-yl)cyclopentan-1-ol] | 8.99 |
| Cc1c(Nc2ncc3cc(Cl)c([C@@H]4CCN(C5CCCC5O)C[C@H]4F)cc3n2)cnn1C1CC1 (single isomer, unassigned) [Ex-4.159, (1S,2R)(3S,4S) or (1R,2S)(3S,4S) or (1R,2R)(3S,4S) or (1S,2S)(3S,4S) or (1S,2R)(3R,4R) or (1R,2S)(3R,4R) or (1R,2R)(3R,4R) or (1S,2S)(3R,4R) 2-(4-{6-chloro-2-[(1-cyclopropyl-5-methyl-1H-pyrazol-4-yl)amino]quinazolin-7-yl}-3-fluoropiperidin-1-yl)cyclopentan-1-ol] | >9.20 |
| Cc1c(Nc2ncc3cc(Cl)c([C@H]4CCN(C5CCCC5O)C[C@@H]4F)cc3n2)cnn1C1CC1 (single isomer, unassigned) [Ex-4.160, (1S,2R)(3S,4S) or (1R,2S)(3S,4S) or (1R,2R)(3S,4S) or (1S,2S)(3S,4S) or (1S,2R)(3R,4R) or (1R,2S)(3R,4R) or (1R,2R)(3R,4R) or (1S,2S)(3R,4R) 2-(4-{6-chloro-2-[(1-cyclopropyl-5-methyl-1H-pyrazol-4-yl)amino]quinazolin-7-yl}-3-fluoropiperidin-1-yl)cyclopentan-1-ol] | >9.20 |
| Cc1c(Nc2ncc3cc(Cl)c([C@@H]4CCN([C@@H]5COC[C@@H]5O)C[C@H]4F)cc3n2)cnn1C12CC(C1)C2 (single isomer, unassigned) [Ex-4.161, (3S,4S)(3S,4S) or (3S,4S)(3R,4R) or (3R,4R)(3S,4S) or (3R,4R)(3R,4R) 4-[4-(2-{[1-(bicyclo[1.1.1]pentan-1-yl)-5-methyl-1H-pyrazol-4-yl]amino}-6-chloroquinazolin-7-yl)-3-fluoropiperidin-1-yl]oxolan-3-ol] | 8.92 |
| Cc1c(Nc2ncc3cc(Cl)c([C@@H]4CCN([C@H]5COC[C@H]5O)C[C@H]4F)cc3n2)cnn1C12CC(C1)C2 (single isomer, unassigned) [Ex-4.162, (3S,4S)(3S,4S) or (3S,4S)(3R,4R) or (3R,4R)(3S,4S) or (3R,4R)(3R,4R) 4-[4-(2-{[1-(bicyclo[1.1.1]pentan-1-yl)-5-methyl-1H-pyrazol-4-yl]amino}-6-chloroquinazolin-7-yl)-3-fluoropiperidin-1-yl]oxolan-3-ol] | >9.20 |
| Cc1cc2cnc(Nc3cnn(C45CC(C4)C5)c3C)nc2cc1[C@@H]1CCN([C@H]2COC[C@H]2O)C[C@H]1F (single isomer, unassigned) [Ex-4.164, (3S,4S)(3S,4S) or (3S,4S)(3R,4R) or (3R,4R)(3S,4S) or (3R,4R)(3R,4R) 4-[4-(2-{[1-(bicyclo[1.1.1]pentan-1-yl)-5-methyl-1H-pyrazol-4-yl]amino}-6-methylquinazolin-7-yl)-3-fluoropiperidin-1-yl]oxolan-3-ol] | >9.20 |
| Cc1cc2cnc(Nc3cnn(C45CC(C4)C5)c3C)nc2cc1[C@@H]1CCN([C@@H]2COC[C@@H]2O)C[C@H]1F (single isomer, unassigned) [Ex-4.165, (3S,4S)(3S,4S) or (3S,4S)(3R,4R) or (3R,4R)(3S,4S) or (3R,4R)(3R,4R) 4-[4-(2-{[1-(bicyclo[1.1.1]pentan-1-yl)-5-methyl-1H-pyrazol-4-yl]amino}-6-methylquinazolin-7-yl)-3-fluoropiperidin-1-yl]oxolan-3-ol] | 8.67 |
| Clc1cc2cnc(Nc3cnn(C4CC4)c3Cl)nc2cc1C1CCN(C2COC(C3CC3)C2)CC1 (single isomer, unassigned) [Ex-4.166, (3R,5R) or (3S,5R) or (3R,5S) or (3S,5S) 6-chloro-N-(5-chloro-1-cyclopropyl-1H-pyrazol-4-yl)-7-[1-(5-cyclopropyloxolan-3-yl)piperidin-4-yl]quinazolin-2-amine] | 9.17 |
| Clc1cc2cnc(Nc3cnn(C4CC4)c3Cl)nc2cc1C1CCN(C2COC(C3CC3)C2)CC1 (single isomer, unassigned) [Ex-4.167, (3R,5R) or (3S,5R) or (3R,5S) or (3S,5S) 6-chloro-N-(5-chloro-1-cyclopropyl-1H-pyrazol-4-yl)-7-[1-(5-cyclopropyloxolan-3-yl)piperidin-4-yl]quinazolin-2-amine] | 8.14 |
| Cc1c(Nc2ncc3cc(Cl)c(C4CCN(C5CCC(CC#N)C5)CC4)cc3n2)cnn1C1CC1 (single isomer, unassigned) [Ex-4.168, (1R,3R) or (1S,3R) or (1R,3S) or (1S,3S) [3-(4-{6-chloro-2-[(1-cyclopropyl-5-methyl-1H-pyrazol-4-yl)amino]quinazolin-7-yl}piperidin-1-yl)cyclopentyl]acetonitrile] | 8.88 |
